Like-named read-outs stand apart in the source and are kept apart here.
Assays:
HT-29 cells [1] = assay: CCK-8 cell viability assay; assay type: cell-based; details: for viability at 400 µM: Homo sapiens, HT-29, 400 μM, 48 h; for decrease in cell viability: HT-29, highest concentration of 400 μM
Description: (§1) The CCK-8 assay was used to evaluate the cytotoxicity of compounds 16a, 16b, and 16e on the breast cancer cell line MDA-MB-231 and colon cancer cell line HT-29. MDA-MB-231 and HT-29 are tumour cells that have been reported to express CA IX. We cultivated them under normoxia and hypoxia respectively and then evaluated the effects of the compounds on tumour cell viability at different concentrations.
(§2) Cell viability was tested by CCK-8 assay. The MDA-MB-231, HT-29 and MG-63 cell lines were provided by KeyGEN BioTECH Ltd. (Nanjing, Jiangsu, China). The cancer cell suspension was prepared to 5.0 × 10^4 cells/mL. After adding 100 μL cell suspension into each well of 96-well plates, the 96-well plates were placed in the incubator at 37 °C and 5% CO2 for 24 h. The compounds were diluted to the required concentration with the medium, and 100 μL of the corresponding medium was added to each well. Meanwhile, the negative control group was set up. The plates were incubated in normoxia or hypoxia for 48 h. The CCK-8 solution (10 μL) was added to each well, and the cells were incubated for another 3 h. After removing the bubbles in each well, cell viability was assessed by measuring the absorbance at 450 nm wavelength using a microplate reader. The hypoxia atmosphere consisted of 0.5% O2, 5% CO2, and 94.5% N2. The normoxia atmosphere was air.

MDA-MB-231 cells [2] = assay: CCK-8 cell viability assay; assay type: cell-based; details: Homo sapiens, MDA-MB-231, 400 μM, 48 h
Description: as §1, §2

MG-63 cells = assay: CCK-8 cell viability assay; assay type: cell-based, human; details: for viability at 800 µM: Homo sapiens, MG-63, 800 μM, 48 h
Description: The human osteosarcoma cell line MG-63 is a high-expressing cell line of CA IX and XII [24]. We selected compound 16b with the best activity in the above studies to study the cell viability inhibitory activity of MG-63 (detailed data is provided in the Table S4 of supplementary information).
as §2

MDA-MB-231 cells [3] = assay: Measurement of extracellular pH; assay type: cell-based; details: for Extracellular pH, Hypoxic condition: hypoxia, control 6.84; for Extracellular pH, Normoxic condition: normoxia, control 7.06; for effect on extracellular pH: MDA-MB-231, 0.1 mM and 1.0 mM
Description: (§3) The main role of CA IX and XII in tumour development is to regulate the pH of the tumour growth microenvironment so that tumour cells are in a weakly acidic environment. Such an acidic environment is conducive to the growth of tumour cells and protects tumour cells from being killed by chemotherapeutics.
(§4) The changes in extracellular pH were evaluated according to previously published procedures. Cancer cells were grown in the medium containing 10% FBS and incubated in 6-well plates for 12 h. After removing the medium, we added fresh medium to the 6-well plates and incubated them for 48 h under hypoxia or normoxia. Then, we measured the pH of the culture medium immediately after collection. The tested compounds were dissolved in DMSO and diluted to the desired concentration. After the addition of tested compounds, the same procedure was carried out.

HT-29 cells [4] = assay: Measurement of extracellular pH; assay type: cell-based; details: for Extracellular pH, Hypoxic condition: hypoxia, control 6.81; for Extracellular pH, Normoxic condition: normoxia, control 7.02; for effect on extracellular pH: HT-29, 0.1 mM and 1.0 mM
Description: as §3, with “chemotherapeutics. We evaluated the effects of 0.1 mM and 1.0 mM of compounds 16a and 16b on the pH of the tumour cell growth environment under normoxia or hypoxia (detailed data is provided in the Tables S5 and S6 of supplementary information).” for “chemotherapeutics.”
as §4

hCA II = hCA II (Homo sapiens, UniProt P00918); assay: CA inhibition assay (hydrolysis of 4-nitrophenylacetate); assay type: biochemical; details: 4-NPA hydrolysis; three independent assays, relative errors 5–10%
Description: (§5) Carbonic anhydrase has the ability to catalyse the hydrolysis of 4-NPA. […] More detailed operations and specific parameters are as reported earlier.

hCA IX = hCA IX (Homo sapiens, UniProt Q16790); assay: as above; assay type: biochemical; details: 4-NPA hydrolysis; three independent assays, relative errors 5–10%
Description: as §5

hCA XII = hCA XII (Homo sapiens, UniProt O43570); assay: as above; assay type: biochemical; details: 4-NPA hydrolysis; three independent assays, relative errors 5–10%
Sequence of hCA XII (O43570 25-354): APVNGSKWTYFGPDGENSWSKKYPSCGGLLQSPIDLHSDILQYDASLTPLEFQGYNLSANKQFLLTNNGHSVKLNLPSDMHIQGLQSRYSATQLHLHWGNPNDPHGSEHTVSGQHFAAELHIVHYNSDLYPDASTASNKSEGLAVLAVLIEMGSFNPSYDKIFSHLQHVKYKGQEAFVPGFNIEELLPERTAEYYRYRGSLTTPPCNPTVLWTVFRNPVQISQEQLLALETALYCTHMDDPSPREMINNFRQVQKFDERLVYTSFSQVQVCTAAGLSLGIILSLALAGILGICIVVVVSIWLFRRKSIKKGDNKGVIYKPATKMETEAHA
Description: as §5

MDA-MB-231 cells [5] = assay: Cell migration (scratch wound) assay; assay type: cell-based; details: MDA-MB-231, 400 μM, hypoxia
Description: Tumour cell migration is one of the basic biological characteristics of tumour cells. […] MDA-MB-231 was selected as the experimental cell line to explore the ability of 16a to reduce tumour cells migration under hypoxia.
MDA-MB-231 cells (1 × 10^5 cells/well) were cultured in 6-well plates and wounded by scratching with a pipette tip. The wounded cell monolayers were washed three times with PBS and incubated with serum-free medium.

[6] = hypoxia, read-out: cell viability, Hypoxic condition (%)
[7] = normoxia, read-out: cell viability, Normoxic condition (%)

| Compound | viability at 400 µM (HT-29 cells [1]; [6]) [%] | viability at 400 µM (HT-29 cells [1]; [7]) [%] | viability at 400 µM (MDA-MB-231 cells [2]; [6]) [%] | viability at 400 µM (MDA-MB-231 cells [2]; [7]) [%] | viability at 800 µM (MG-63 cells; [6]) [%] | viability at 800 µM (MG-63 cells; [7]) [%] | Extracellular pH, Hypoxic condition (MDA-MB-231 cells [3]; MDA-MB-231, 0.1 mM) | Extracellular pH, Normoxic condition (MDA-MB-231 cells [3]; MDA-MB-231, 0.1 mM) | Extracellular pH, Normoxic condition (MDA-MB-231 cells [3]; MDA-MB-231, 1.0 mM) | Extracellular pH, Hypoxic condition (HT-29 cells [4]; HT-29, 0.1 mM) | Extracellular pH, Normoxic condition (HT-29 cells [4]; HT-29, 0.1 mM) | Extracellular pH, Hypoxic condition (HT-29 cells [4]; HT-29, 1.0 mM) | Extracellular pH, Normoxic condition (HT-29 cells [4]; HT-29, 1.0 mM) | IC50 (hCA II) [nM] | IC50 (hCA IX) [nM] | IC50 (hCA XII) [nM] | decrease in cell viability (HT-29 cells [1]) [%] | effect on extracellular pH (MDA-MB-231 cells [3]) | Extracellular pH, Hypoxic condition (MDA-MB-231 cells [3]; MDA-MB-231, 1.0 mM) | effect on extracellular pH (HT-29 cells [4]) | other results |
| --- | --- | --- | --- | --- | --- | --- | --- | --- | --- | --- | --- | --- | --- | --- | --- | --- | --- | --- | --- | --- | --- |
| CC(=O)Nc1nnc(S(N)(=O)=O)s1 [AZM, acetazolamide, reference compound] | 89.53 ± 0.161 | 91.7 ± 2.59 | 85.2 ± 1.96 | 96.2 ± 2.28 | 81.7 ± 1.17 | 87.1 ± 1.94 | 6.97 | 7.05 | 7.23 | 6.90 | 6.97 | 7.28 | 7.26 |  |  |  |  |  |  |  |  |
| NS(=O)(=O)c1ccc(-n2cc(-c3ccc(NC(=O)CCC(=O)N[C@@H]4O[C@H](CO)[C@@H](O)[C@H](O)[C@H]4O)cc3)nn2)cc1 [Compound 16a, N^1-(4-(1-(4-sulfamoylphenyl)-1H-1,2,3-triazol-4-yl)phenyl)-N^4-((2R,3R,4S,5S,6R)-3,4,5-trihydroxy-6-(hydroxymethyl)tetrahydro-2H-pyran-2-yl)succinamide] | 82.6 ± 1.92 | 83.3 ± 2.09 | 85.1 ± 1.68 | 88.9 ± 1.71 |  |  | 6.9 | 7.04 | 7.21 | 6.88 | 6.97 | 7.26 | 7.13 | 27.7 | 51.6 | 135 | 20 | improve the extracellular pH | 7.31 | improve the extracellular pH | effect on tumour cell migration (MDA-MB-231 cells [5]; at 72 h): could hardly be detected; effect on tumour cell migration (MDA-MB-231 cells [5]; first 24 h, vs blank group): slight inhibitory effect |
| NS(=O)(=O)c1ccc(-n2cc(-c3cccc(NC(=O)CCC(=O)N[C@@H]4O[C@H](CO)[C@@H](O)[C@H](O)[C@H]4O)c3)nn2)cc1 [Compound 16b, N^1-(3-(1-(4-sulfamoylphenyl)-1H-1,2,3-triazol-4-yl)phenyl)-N^4-((2R,3R,4S,5S,6R)-3,4,5-trihydroxy-6-(hydroxymethyl)tetrahydro-2H-pyran-2-yl)succinamide] | 81.1 ± 2.43 | 89.67 ± 0.554 | 86.5 ± 1.92 | 90.5 ± 0.965 | 76.6 ± 3.51 | 81.6 ± 3.34 | 6.88 | 7.02 | 7.20 | 6.82 | 6.96 | 7.27 | 7.15 | 13.3 | 86.6 | 256 | 20 | improve the extracellular pH | 7.20 | improve the extracellular pH | inhibition of MG-63 cell viability (MG-63 cells; MG-63, normoxia and hypoxia): concentration-dependent |
| Cc1cc(-c2cn(-c3ccc(S(N)(=O)=O)cc3)nn2)ccc1NC(=O)CCC(=O)N[C@@H]1O[C@H](CO)[C@@H](O)[C@H](O)[C@H]1O [Compound 16e, N^1-(2-methyl-4-(1-(4-sulfamoylphenyl)-1H-1,2,3-triazol-4-yl)phenyl)-N^4-((2R,3R,4S,5S,6R)-3,4,5-trihydroxy-6-(hydroxymethyl)tetrahydro-2H-pyran-2-yl)succinamide] | 87.7 ± 1.79 | 91.5 ± 2.64 | 90.6 ± 2.76 | 87.2 ± 2.28 |  |  |  |  |  |  |  |  |  | 41.6 | 84.7 | 162 |  |  |  |  |  |
| COc1cc(-c2cn(-c3ccc(S(N)(=O)=O)cc3)nn2)ccc1NC(=O)CCCC(=O)N[C@@H]1O[C@H](CO)[C@@H](O)[C@H](O)[C@H]1O [Compound 16m, N^1-(2-methoxy-4-(1-(4-sulfamoylphenyl)-1H-1,2,3-triazol-4-yl)phenyl)-N^5-((2R,3R,4S,5S,6R)-3,4,5-trihydroxy-6-(hydroxymethyl)tetrahydro-2H-pyran-2-yl)glutaramide] |  |  |  |  |  |  |  |  |  |  |  |  |  | 88.1 | 99.6 | 146 |  |  |  |  |  |

Source: paper PMC8704611, “Synthesis, Molecular Docking Analysis, and Biological Evaluations of Saccharide-Modified Sulfonamides as Carbonic Anhydrase IX Inhibitors” (International Journal of Molecular Sciences, 2021)
